In PMC6479757, “Coralmycin Derivatives with Potent Anti-Gram Negative Activity Produced by the Myxobacteria Corallococcus coralloides M23” (Molecules, 2019):
In brackets after ≈: the same amount, converted by molar mass. Read-outs that look alike come from different tables or passages of the source.

How the values were obtained:
[1] = tested on: Staphylococcus aureus RN 4220; experiment: Antibacterial susceptibility, broth microdilution MIC; format: cell-based; conditions: RN4220, 24 h
Method: Whole-cell antimicrobial activities were determined using a broth microdilution method described previously. Most of the test strains were grown to mid-log phase in Mueller–Hinton broth and diluted 1,000-fold in the same medium. Cells (10^5/mL) were dispensed at 0.2 mL/well in 96-well microtiter plates. Streptococcus pneumonia and Acinetobacter baumanii were grown in Todd–Hewitt medium and nutrient broth, respectively. […] Cells were treated with 0.05% DMSO as a vehicle control. The MICs were determined in triplicate by serial two-fold dilutions of the test compounds. […] Bacterial growth was determined by measuring the absorption at 650 nm using a microtiter enzyme-linked immunosorbent assay (ELISA) reader (Molecular Devices Corporation, Sunnyvale, CA, USA).

[2] = tested on: Acinetobacter baumannii KCTC 2508; experiment: as above; format: cell-based; conditions: KCTC2508, nutrient broth, 24-h incubation at 37 °C
Method: (§1) Whole-cell antimicrobial activities were determined using a broth microdilution method described previously. Most of the test strains were grown to mid-log phase in Mueller–Hinton broth and diluted 1,000-fold in the same medium. Cells (10^5/mL) were dispensed at 0.2 mL/well in 96-well microtiter plates. Streptococcus pneumonia and Acinetobacter baumanii were grown in Todd–Hewitt medium and nutrient broth, respectively. […]. Cells were treated with 0.05% DMSO as a vehicle control. The MICs were determined in triplicate by serial two-fold dilutions of the test compounds. […] Bacterial growth was determined by measuring the absorption at 650 nm using a microtiter enzyme-linked immunosorbent assay (ELISA) reader (Molecular Devices Corporation, Sunnyvale, CA, USA).

[3] = tested on: E. coli CCARM 1356; experiment: as above; format: cell-based; conditions: Escherichia coli, CCARM1356, 24-h incubation at 37 °C
Method: as §1

[4] = tested on: E. coli KCTC 1682; experiment: as above; format: cell-based; conditions: Escherichia coli
Method: as §1

[5] = tested on: Enterococcus faecalis KCTC 5191; experiment: as above; format: cell-based; conditions: KCTC5191, 24-h incubation at 37 °C
Method: as §1

[6] = tested on: Klebsiella pneumoniae KCTC 22057; experiment: as above; format: cell-based; conditions: KCTC22057; Klebsiella pneumoniae KCTC 22057; 24-h incubation at 37 °C
Method: as §1

[7] = tested on: MRSA CCARM 3167; experiment: as above; format: cell-based; conditions: Staphylococcus aureus, 24-h incubation at 37 °C
Method: as §1

[8] = tested on: MRSA CCARM 3506; experiment: as above; format: cell-based; conditions: Staphylococcus aureus, 24-h incubation at 37 °C
Method: as §1

[9] = tested on: Pseudomonas aeruginosa KCTC 2004; experiment: as above; format: cell-based; conditions: KCTC2004; Pseudomonas aeruginosa KCTC 2004; 24-h incubation at 37 °C
Method: as §1

[10] = tested on: QRSA CCARM 3505; experiment: as above; format: cell-based; conditions: Staphylococcus aureus, CCARM3505; QRSA CCARM 3505; 24-h incubation at 37 °C; read-out: MIC
Method: as §1

[11] = tested on: QRSA CCARM 3519; experiment: as above; format: cell-based; conditions: Staphylococcus aureus, CCARM3519; QRSA CCARM 3519; 24-h incubation at 37 °C; read-out: MIC
Method: as §1

[12] = tested on: Streptococcus pneumonia KCTC 5412; experiment: as above; format: cell-based; conditions: Streptococcus pneumoniae, KCTC5412, Todd–Hewitt medium, 24-h incubation at 37 °C
Method: as §1

[13] = target: T1, E. coli DNA gyrase (Escherichia coli, UniProt P0AES4+P0AES6); experiment: DNA gyrase supercoiling assay; format: biochemical; conditions: relaxed plasmid, 37 °C for 30 min, agarose gel band densities; read-out: IC50, inhibition of the supercoiling activity of E. coli DNA gyrase
T1 construct: purchased TopoGEN TG2001G
Method: The inhibitory activities of coralmycins on the supercoiling activity of DNA gyrase were investigated using a ‘Purified E. coli DNA Gyrase Drug Screening Kit’ (TopoGEN #TG2001G, Buena Vista, CO, USA). […] The reaction was terminated by the addition of 2 μL of 10% (w/v) SDS and 2 μL of 10× DNA gel loading dye (bromophenol blue). Then, 20 μL of chloroform:isoamyl alcohol (24:1 mixture) was added, and the mixture was vortexed and then centrifuged. The samples in the blue phase were run on 1% (w/v) agarose gel and were visualized using ethidium bromide. All reactions were performed in triplicate. To calculate the IC50 values, the band densities were measured using ImageJ (National Institutes of Health, Bethesda, Maryland, MD, USA).

[14] = tested on: Gram-negative and Gram-positive bacteria; conditions: cited from earlier work
[15] = target: DNA gyrase; conditions: read-out: IC50, DNA gyrase-inhibitory activity; cited from earlier work
[16] = tested on: Gram-negative pathogens as well as Gram-positive bacteria; parameters: method as in PMID 27598688; conditions: compared with 11; cited from earlier work
[17] = tested on: Gram-negative pathogens; conditions: compared with 12; cited from earlier work
[18] = KCTC1682, 24-h incubation at 37 °C, Table 6 and Table S1, read-out: MIC

T1 sequence (P0AES4 whole entry, one chain of several): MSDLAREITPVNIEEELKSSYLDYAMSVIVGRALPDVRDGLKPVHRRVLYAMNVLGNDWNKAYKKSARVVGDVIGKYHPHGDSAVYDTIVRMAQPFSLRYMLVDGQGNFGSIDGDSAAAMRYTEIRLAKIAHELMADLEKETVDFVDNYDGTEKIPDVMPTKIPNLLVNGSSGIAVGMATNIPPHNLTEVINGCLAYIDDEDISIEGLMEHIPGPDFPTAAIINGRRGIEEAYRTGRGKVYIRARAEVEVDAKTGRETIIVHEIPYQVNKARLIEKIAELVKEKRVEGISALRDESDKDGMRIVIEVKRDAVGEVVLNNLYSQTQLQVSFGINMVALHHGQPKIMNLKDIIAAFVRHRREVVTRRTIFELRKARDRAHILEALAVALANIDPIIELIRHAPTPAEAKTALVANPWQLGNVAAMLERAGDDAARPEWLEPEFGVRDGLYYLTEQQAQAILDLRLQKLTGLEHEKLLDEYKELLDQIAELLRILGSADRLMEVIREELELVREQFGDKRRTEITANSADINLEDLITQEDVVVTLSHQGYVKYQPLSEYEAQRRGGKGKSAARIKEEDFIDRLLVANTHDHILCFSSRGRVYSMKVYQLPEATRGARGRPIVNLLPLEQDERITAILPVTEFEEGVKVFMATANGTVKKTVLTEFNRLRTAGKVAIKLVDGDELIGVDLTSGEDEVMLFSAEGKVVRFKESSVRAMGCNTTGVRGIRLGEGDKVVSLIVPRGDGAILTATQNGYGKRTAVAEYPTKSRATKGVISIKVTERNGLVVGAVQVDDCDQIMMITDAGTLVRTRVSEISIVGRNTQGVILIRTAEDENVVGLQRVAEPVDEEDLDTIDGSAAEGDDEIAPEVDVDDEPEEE

Structure (SMILES) | MIC [1] | MIC [2] | MIC [3] | MIC [4, 18] | MIC ([4]; KCTC1682, Table 7, read-out: MIC, antibacterial activity on E. coli KCTC 1682) | MIC [5] | MIC [6] | MIC [7] | MIC [8] | MIC [9] | MIC [10] | MIC [11] | MIC [12] | IC50 [13] | antibacterial activity ([14]; in words) | MICs against Gram-negative and Gram-positive bacteria ([14]; reported range) | IC50 [15] | MIC ([4]; KCTC1682, 24 h, Table 7, read-out: MIC, antibacterial activity on E. coli KCTC 1682) | antibacterial activity relative to 11 (times higher) [16] | antibacterial activity against Gram-negative pathogens relative to 12 (times higher) [17]
CC(C)Oc1cc(C(=O)O)ccc1NC(=O)c1ccc(NC(=O)c2ccc(N)cc2)c(OC(C)C)c1O [Compound 10, cystobactamid 507] | > 32 µg/mL | > 32 µg/mL | > 32 µg/mL | > 32 µg/mL | > 32 µg/mL | > 32 µg/mL | > 32 µg/mL | > 32 µg/mL | > 32 µg/mL | > 32 µg/mL | > 32 µg/mL | > 32 µg/mL | > 32 µg/mL | > 300 µM | weak antibacterial activity | 4 to 65 µg/mL | 20.2 µM |  |  | 
CO[C@@H](C(N)=O)[C@H](NC(=O)c1ccc(NC(=O)c2ccc([N+](=O)[O-])cc2)cc1)C(=O)Nc1ccc(C(=O)Nc2ccc(C(=O)Nc3ccc(C(=O)O)c(O)c3OC(C)C)c(O)c2OC(C)C)cc1 [Compound 12, coralmycin A, reference compound] | 0.015 µg/mL (≈ 0.016 µM) | 0.125 µg/mL (≈ 0.134 µM) | 0.125 µg/mL (≈ 0.134 µM) | 0.125 µg/mL (≈ 0.134 µM) |  | 0.03 µg/mL (≈ 0.0321 µM) | 2 µg/mL (≈ 2.14 µM) | 0.015 µg/mL (≈ 0.016 µM) | 0.015 µg/mL (≈ 0.016 µM) | 4 µg/mL (≈ 4.27 µM) | 0.125 µg/mL (≈ 0.134 µM) | 0.25 µg/mL (≈ 0.267 µM) | 0.25 µg/mL (≈ 0.267 µM) | 0.08 µM |  |  |  | 0.25 µg/mL (≈ 0.267 µM) | 10 times | 
CO[C@@H](C(N)=O)[C@H](NC(=O)c1ccc(NC(=O)c2ccc([N+](=O)[O-])cc2)cc1)C(=O)Nc1ccc(C(=O)Nc2ccc(C(=O)Nc3ccc(C(=O)O)cc3)c(O)c2OC(C)C)cc1 [cystobactamid 861-2] |  |  |  |  |  |  |  |  |  |  |  |  |  |  |  |  |  |  |  | 4–10 times
